Experiment [1] deals with T1, rhHC (recombinant human haptocorrin) (Homo sapiens, UniProt P20061).
T1 construct: Myc-His-tag (Myc + 6xHis, from pcDNA4/myc-His A) (C, cleaved yes); made in house
T1 sequence (P20061 24-433): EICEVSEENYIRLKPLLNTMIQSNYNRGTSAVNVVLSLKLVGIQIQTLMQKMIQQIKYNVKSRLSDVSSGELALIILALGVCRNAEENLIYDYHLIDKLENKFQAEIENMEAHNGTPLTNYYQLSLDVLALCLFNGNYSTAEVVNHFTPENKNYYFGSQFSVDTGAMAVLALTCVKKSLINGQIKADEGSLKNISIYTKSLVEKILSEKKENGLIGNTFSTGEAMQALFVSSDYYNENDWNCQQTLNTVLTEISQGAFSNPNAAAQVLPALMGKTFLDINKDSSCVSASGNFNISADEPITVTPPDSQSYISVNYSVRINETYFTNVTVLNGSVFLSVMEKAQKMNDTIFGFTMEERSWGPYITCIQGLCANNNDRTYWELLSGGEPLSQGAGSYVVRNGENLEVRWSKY
As to the kind of experiment: Binding and dissociation kinetics with fluorescent Cbl-conjugate CBC (stopped-flow competition and chase experiments). The settings on record: pH 7.5. On the procedure:
A more detailed examination of the binding kinetics was performed in a competitive assay, where the fluorescent ligand CBC [32] alone or in the mixture with a test ligand (Cbl or Cbi) reacted with rhHC over time. Attachment of CBC to Cbl-binding proteins causes increase in the quantum yield of the fluorophore, which facilitates monitoring of the protein - CBC interactions, [33]. Presence of a non-fluorescent ligand X decreases the signal, because the binding goes along two competing routes HC•CBC ← HC → HC·X (reactions behave as irreversible processes within 0.2 s). The binding and dissociation rate constants k +s and k−s, as well as the equilibrium dissociation constant KD were calculated for all ligands by computer fitting as explained elsewhere and the results are listed in Table 2. Compared to previously reported values for native HC, all current binding rate constants (k +s) were 2–3 fold lower. This difference could not be explained by possible concentration error (±10%, examined by simulations).
The dissociation kinetics was examined in chase experiments which obeyed (within the examined time scale) one of the below schemes: HC·CBC → HC → HC·X or HC·X → HC → HC·CBC (first step was rate limiting). The dissociation kinetics of the ligands CBC, Cbl and Cbi was measured after formation of the corresponding complexes with rhHC, followed by addition of external CBC (or Cbl in the case of CBC itself) (Figure 5B). The dissociation rate constants were then calculated from linear slopes (Table 2). […] It should be understood, that evaluation of rate constants below 3 · 10^−6 s^−1 within the examined time scale cannot be precise, and that the records were used for comparison of different ligands rather than for precise quantification of k −s.
[…] The binding kinetics was monitored by means of stopped flow method (DX.17 MV stopped-flow spectro-fluorometer, Applied Biophysics, UK) using the fluorescent response from a Cbl-conjugate CBC [32], [33], excitation 525 nm, emission >550 nm, slit 1.5 mm, voltage 390, bandpass of 18.6 nm, light path of 1 cm. […] The relevant rate constants of association were calculated by computer fitting, as described elsewhere, [33].
The dissociation reactions were monitored on fluorometer Varian Eclipse (Varian, Australia) using the fluorescent response of CBC, excitation 525 nm (slit 5 nm), emission 550 nm (slit 5 nm), photomultiplier 600 V. In one setup the pre-formed rhHC·CBC complex (1 µM, 2 min) was mixed with free Cbl (1 µM), and decrease in fluorescence was registered due to rhHC·CBC ↔ Cbl exchange. Dissociation of the non-fluorescent ligands (Cbl or Cbi) was measured in similar chase experiments. […] The endogenous ligand dissociated from the protein (rate limiting step), whereupon CBC immediately bound to rhHC and increased fluorescence.

For experiment [2], the system named is native HC (native human haptocorrin). Set-up: method as in PMID 17487979. Conditions: 20°C, cited from earlier work; for k−s dissociation rate constant: pH 7.5, measured over a period of 100 h; for k+s binding rate constant: pH 7.5.
The target in the next experiment is T2, TC (transcobalamin) (Homo sapiens, UniProt P20062).
T2 sequence (P20062 19-427): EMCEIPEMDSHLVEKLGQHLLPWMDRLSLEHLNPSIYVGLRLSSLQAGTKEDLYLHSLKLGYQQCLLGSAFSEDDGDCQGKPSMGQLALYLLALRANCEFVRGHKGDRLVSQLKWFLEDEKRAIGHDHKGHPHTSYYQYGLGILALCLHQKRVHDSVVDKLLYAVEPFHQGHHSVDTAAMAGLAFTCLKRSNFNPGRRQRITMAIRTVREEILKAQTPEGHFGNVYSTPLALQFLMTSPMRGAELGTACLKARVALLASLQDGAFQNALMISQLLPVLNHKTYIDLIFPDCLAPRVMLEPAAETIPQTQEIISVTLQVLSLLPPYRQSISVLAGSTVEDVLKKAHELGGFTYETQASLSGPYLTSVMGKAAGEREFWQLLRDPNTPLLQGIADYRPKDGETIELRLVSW
The experiment is described as follows: Concurrent binding kinetics test with CBC and Cbl. Conditions: data not shown.

For a further experiment, the target named is IF (intrinsic factor) (Homo sapiens, UniProt P27352). The experiment is described as follows: Concurrent binding kinetics test with CBC and Cbl. The settings on record: data not shown.
A short description of experiment [3]: Active protein fraction (AP) from absorbance ratio A280/A356 after saturation with aquo-Cbl. The class given is binding. From the text: The spectral features of the complex rhHC•aquo-Cbl were explored further when rhHC was saturated with aquo-Cbl added in steps at concentrations below the total binding capacity of the protein (Figure 3B). This allowed calculation of the molar absorbance coefficients of aquo-Cbl when bound to rhHC (Table 1). These parameters helped to evaluate the active protein fraction (AP) as previously shown for IF [27]. For rhHC the value of AP was found from the ratio of R = A280/A356 according to the equation below and the values of absorbance coefficients from Table 1. [drawing 1]
Prior to AP measurements, rhHC was saturated with an excess of aquo-Cbl, free aquo-Cbl was bound to the specific tetrazole adsorbent, whereupon the spectrum of rhHC·Cbl was recorded and compared to the control sample (buffer + aquo-Cbl + adsorbent). After subtraction of the control spectrum, the absorbance ratio and AP were calculated.
rhHC (10 µM) was saturated with an excess of CNCbl (20 µM) and subjected to dialysis against a 50-fold volume excess of 5 M GdnHCl (30°C, 180 rpm). The solution was changed at days 2 and 3. Incubation was stopped after day 4, whereupon rhHC was renatured by dialysis against 0.2 M Na-phosphate buffer pH 7.5, see also ref. [31].

For experiment [4], the system named is HepG2 cells expressing the asialoglycoprotein receptor. As to the kind of experiment: Internalisation of 125I-labelled proteins into HepG2 cells. The experiment is classed as cell-based. The settings on record: 125I-labelled protein. The text has this: Depending on the source of expression, different isoforms of HC exist in human blood and extracellular fluids. […] We tested whether ^125I-labelled rhHC would be readily taken up by HepG2 cells expressing the asialoglycoprotein receptor involved in HC clearance. […] Only after removal of terminal sialic acid by neuraminidase, rhHC and native HC were internalised. Removal of the terminal sialic acid residues was qualitatively determined by SDS/PAGE (Figure 6A).
The proteins were labelled with ^125I using the Iodogen method (Pierce). Labelled protein was purified on a PD10 column (GE healthcare, Glattbrugg, Switzerland). HEPG2 cells were incubated in twelve-well plates in triplicates with about 1 µg of labelled protein for 1 h at 4°C. The plates were then incubated for 0, 1.5, 3, 6 h at 37°C for internalisation. After these times, the cells were washed twice with PBS/0.1% bovine serum albumin and then incubated for 5 min with ice-cold acid wash buffer (50 mM Glycine-HCl, 100 mM NaCl, pH 2.8) to remove the cell-surface bound radioligand. Subsequently, cells were solubilised by incubation with 1 N NaOH for 5 min. at 37°C. At each time point the radioactivity in the cell medium (released), the acid wash (cell-surface bound) and the solubilised cells (internalised) were determined with a NaI-γ-counter (Cobra II Packard, Canberra Packard GmbH, Frankfurt, Germany).

[5] abbreviates: rhHC preparation with active protein fraction 0.95.
Setting [6] is: after removal of terminal sialic acid by neuraminidase.
The mark [7] stands for this setting: without neuraminidase treatment, time span of 6 h.

These results are taken from article PMC3360681, “Comparison of Recombinant Human Haptocorrin Expressed in Human Embryonic Kidney Cells and Native Haptocorrin” (PLoS ONE, 2012).

IF (intrinsic factor), sequence (P27352 19-417, species assumed): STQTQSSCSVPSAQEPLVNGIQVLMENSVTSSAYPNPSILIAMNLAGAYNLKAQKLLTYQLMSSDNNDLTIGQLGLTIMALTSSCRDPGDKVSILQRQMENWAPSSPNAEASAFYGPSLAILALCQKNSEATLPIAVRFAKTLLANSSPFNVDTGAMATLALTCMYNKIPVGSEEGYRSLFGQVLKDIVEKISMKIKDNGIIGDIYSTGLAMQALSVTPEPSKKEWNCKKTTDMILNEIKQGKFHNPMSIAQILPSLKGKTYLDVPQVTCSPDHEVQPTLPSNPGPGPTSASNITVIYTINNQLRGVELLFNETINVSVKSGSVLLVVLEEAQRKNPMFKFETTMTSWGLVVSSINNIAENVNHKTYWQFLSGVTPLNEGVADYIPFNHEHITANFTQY

In the case of `CC1=C2[N-][C@H]([C@H](CC(N)=O)[C@@]2(C)CCC(=O)NC[C@@H](C)O)[C@]2(C)N=C(C(C)=C3N=C(C=C4N=C1[C@@H](CCC(N)=O)C4(C)C)[C@@H](CCC(N)=O)[C@]3(C)CC(N)=O)[C@@H](CCC(N)=O)[C@]2(C)CC(N)=O.[Co+2]` [Cbi, cobinamide], the “k+s binding rate constant” value was 21 10^6 M^−1s^−1 in experiment [1] (setting [5]), 33 10^6 M^−1s^−1 in experiment [1] (rhHC preparation with active protein fraction 0.99) and 7.3e+07 M⁻¹ s⁻¹ in experiment [2]. Also, the “k−s dissociation rate constant” value in experiment [2] was “≈5 · 10^−7 s^−1”.

As to `C/C1=C2/[N-][C@H]([C@H](CC(N)=O)[C@@]2(C)CCC(=O)NC[C@@H](C)OP(=O)([O-])O[C@H]2[C@@H](O)[C@@H](n3cnc4cc(C)c(C)cc43)O[C@@H]2CO)[C@]2(C)N=C(/C(C)=C3N=C(/C=C4N=C1[C@@H](CCC(N)=O)C\4(C)C)[C@@H](CCC(N)=O)[C@]\3(C)CC(N)=O)[C@@H](CCC(N)=O)[C@]2(C)CC(N)=O.[Co]` [Cbl, cobalamin], the “k+s binding rate constant” value in experiment [1] (setting [5]) was “X/19/X· 10^6 10^6 M^−1s^−1”; on TC (transcobalamin), 60–70 · 10^6 M^−1 s^−1; on IF (intrinsic factor), 60–70 · 10^6 M^−1 s^−1; in experiment [2], 9e+07 M⁻¹ s⁻¹. Besides, the “k−s dissociation rate constant” value in experiment [1] (setting [5]) is recorded as “X/≤3/X· 10^−6 10^−6 s^−1”; in experiment [2], “≈5 · 10^−7 s^−1”.

B1: rhHC: recombinant human haptocorrin expressed in HEK293 cells, tag removed, four excessive C-terminal residues (…LVPR) (protein)
chain: EICEVSEENYIRLKPLLNTMIQSNYNRGTSAVNVVLSLKLVGIQIQTLMQKMIQQIKYNVKSRLSDVSSGELALIILALGVCRNAEENLIYDYHLIDKLENKFQAEIENMEAHNGTPLTNYYQLSLDVLALCLFNGNYSTAEVVNHFTPENKNYYFGSQFSVDTGAMAVLALTCVKKSLINGQIKADEGSLKNISIYTKSLVEKILSEKKENGLIGNTFSTGEAMQALFVSSDYYNENDWNCQQTLNTVLTEISQGAFSNPNAAAQVLPALMGKTFLDINKDSSCVSASGNFNISADEPITVTPPDSQSYISVNYSVRINETYFTNVTVLNGSVFLSVMEKAQKMNDTIFGFTMEERSWGPYITCIQGLCANNNDRTYWELLSGGEPLSQGAGSYVVRNGENLEVRWSKYLVPR
modifications: 125I label (Iodogen method); glycosylated, highly sialylated; left off: Myc, C-terminal, cleaved | His6, C-terminal, cleaved
As to B1, in experiment [3] (apo-rhHC after Cbl saturation, GdnHCl dialysis and renaturing, preparation with AP = 0.95 before treatment), the “AP active protein fraction after renaturing” value is 0.95. Besides, the Cbl binding capacity in experiment [3] (rhHC) is given as 95–99%. The figures for the “Internalisation into HepG2 cells” value in experiment [4] (setting [6]) and in experiment [4] (setting [7]) were “internalised” and “not internalised”, respectively.

B2: native HC: native human haptocorrin purified from plasma of a patient with hepatocellular carcinoma (protein)
chain: EICEVSEENYIRLKPLLNTMIQSNYNRGTSAVNVVLSLKLVGIQIQTLMQKMIQQIKYNVKSRLSDVSSGELALIILALGVCRNAEENLIYDYHLIDKLENKFQAEIENMEAHNGTPLTNYYQLSLDVLALCLFNGNYSTAEVVNHFTPENKNYYFGSQFSVDTGAMAVLALTCVKKSLINGQIKADEGSLKNISIYTKSLVEKILSEKKENGLIGNTFSTGEAMQALFVSSDYYNENDWNCQQTLNTVLTEISQGAFSNPNAAAQVLPALMGKTFLDINKDSSCVSASGNFNISADEPITVTPPDSQSYISVNYSVRINETYFTNVTVLNGSVFLSVMEKAQKMNDTIFGFTMEERSWGPYITCIQGLCANNNDRTYWELLSGGEPLSQGAGSYVVRNGENLEVRWSKY
modifications: 125I label (Iodogen method); glycosylated
notes: native human haptocorrin purified from plasma of a patient with hepatocellular carcinoma
On to B2, for which the results for the “Internalisation into HepG2 cells” value in experiment [4] (setting [6]) and in experiment [4] (setting [7]) were “internalised” and “not internalised”, respectively.
